{"source": "patent US20050031537A1", "about": "“Multifunctional COX-2 inhibitors” (priority 2002, published 2005)", "key": {"Nrf-2": {"tested_on": "Nrf-2", "experiment": "Western and Northern blotting for expression of Nrf-2 (test (g))", "assay_type": "cell-based, human", "settings": "positive in 184B5, 184B5/HER, HCA7, HCT116, SKBR3, BT474 and CaSki cells", "method": "We turn now to criterion (g), i.e. at least 50% increase in expression of Nrf-2. […] 13, 2001).\nWestern blotting and Northern blotting techniques were used to evaluate the expression of Nrf-2. The expression of Nrf-2 was evaluated in HCA7, HCT116, SKBR3, CaSki, 184B5/HER, 184B5 and BT474 cells. 5×10^6cells were used to treat either vehicle alone or the test compound. The Western blotting analysis was performed as described above except anti-Nrf-2 antibody was used to probe the blot. The antibody was obtained from Santa Cruz Biotechnology, Inc. CA. Northern blotting for Nrf-2 was performed as described above and cDNA for Nrf-2 as described in Gong, P., et al., J.Biol Chem 20; 276:27018-27025 (2001) was used as a probe."}, "EGFR": {"tested_on": "EGFR", "experiment": "Western blotting for expression of EGFR (test (b))", "assay_type": "cell-based, human", "settings": "positive in 184B5, 184B5/HER, 1483, LNCaP, HeLa and CaSki cells; 24 h; Western blot", "text": "(§1) We turn now to the criterion (b), that is at least 50% decrease in level of or 50% downregulation of expression of Class I family of receptors tyrosine kinase. The Class I family of receptors tyrosine kinase is described in Reese, M. D., et al Stem Cells 15, pages 1-8 (1997), the whole of which in incorporated herein by reference. Members of the family include HER-2/neu, HER-3, HER-4 and epidermal growth factor receptor (EGFR) and are single-chain membrane spanning proteins which have significant homology to one another including about 80% amino acid identity in the tyrosine kinase domain.\nEpidermal growth factor receptor (EGFR) is a 170 kDA glycoprotein. […] After ligand binding, EGFR undergoes dimerization which is essential for activation of its enzymatic kinase activity. EGFR is thus autophospliorylated and transphosphorylated on tyrosine residues, and the phosphorylated residues become the site of association of effector proteins. Overexpressed EGFR is intimately involved in modulating the epidermal growth factor growth signal and is considered as likely to confer a growth advantage. This conclusion is supported by the observation that tumor growth in nude mice is inhibited by treatment with anti-EGFR antibodies and tumorigenicity in nude mice is inhibited through blockage of the tyrosine kinase activity of the receptor.\n(§2) To evaluate the expression of Class I family of receptors tyrosine kinase (EGFR, HER-2/neu), Western blotting can be performed. Antibodies for EGFR and HER-2/neu can be obtained from Santa Cruz Biotechnology, Inc.\n(§3) Expression of EGFR (performed in 184B5, 184B5/HER, 1483, LNCaP, HeLa and CaSki cells)and HER-2/neu (performed in 184B5/HER, SKBR3 and BT474 cells) was assessed in cells after treatment with test compound for 24 hours. 5×10^6 cells were used for the treatment. Western blotting technique was used to assess the expression levels in cells treated with the test compound compared to vehicle alone. Western blotting was carried out as follows:\n(§4) Cell lysates were prepared by treating cells with lysis buffer (150 mM NaCl, 100 mM Tris (pH 8.0), 1% Tween 20, 50 mM diethyldithiocarbamate, 1 mM EDTA, 1 mM phenylmethylsulfonyl fluoride, 10 μg/ml aprotinin, 10 μg/ml trypsin inhibitor and 10 μg/ml leupeptin). Lysates were sonicated for 20 s on ice and centrifuged at 10,000×g for 10 min to sediment the particulate material. The protein concentration of the supernatant was measured by the method of Lowry, O. H., et al., J. Biol. Chem. 193, 265-275 (195 1). SDS/PAGE was performed under reducing conditions on 10% polyacrylamide gels as described by Laemmli, U.K., Nature (Lond.) 227, 680-685 (1970). The resolved proteins were transferred onto nitrocellulose sheets as detailed by Towbin, H. et al., Proc. Natl. Acad. Sci. USA 76, 4350-4354 (1979). The nitrocellulose membrane was then incubated with anti-EGFR antiserum or anti-HER-2/neu antiserum. Secondary antibody to IgG conjugated to horseradish peroxidase was used. The various antisera were purchased from Santa Cruz Biotechnology, Inc., CA. The blots were probed with the Renaissance Western blot detection system according to the manufacturer's instructions (PerkinElmer Life Sciences, Boston, Mass.)."}, "cyclin D1": {"tested_on": "cyclin D1", "experiment": "Western blotting for expression of cyclin D1 (test (c))", "assay_type": "cell-based, human", "settings": "positive in 184B5, 184B5/HER cells; 24 h; Western blot", "method": "Cyclin D1 is a protein that is important in regulating cell proliferation and is described in Ortega, S., et al, Biochimica et Biophysica Acta 1602, 73-87, (2002), the whole of which is incorporated by reference. […] Effects on expression of cyclin D1 was investigated in 184B5, 184B5/HER, HCA7, HCT116, SKBR3 and BT474 cells. The expression was assessed in cells after treatment with test compound or vehicle using 5×10^4 cells for 24 hours. Western blotting technique was used as follows to assess the expression levels of cyclin D1 in cells treated with the test compound and compared to levels in cells treated with vehicle alone. Cell lysates were prepared by treating cells with lysis buffer as described above. […] The resolved proteins were transferred onto nitrocellulose sheets. The nitrocellulose membrane was then incubated with anti-cyclin D1 antiserum. Secondary antibody to IgG conjugated to horseradish peroxidase was used. The various antisera were purchased from Santa Cruz Biotechnology, Inc., CA. The blots were probed with the Renaissance Western blot detection system according to the manufacturer's instructions (PerkinElmer Life Sciences, Boston, Mass.)."}, "PPRE luciferase": {"tested_on": "PPRE luciferase", "experiment": "PPRE luciferase activation, transient transfection reporter assay (test (a))", "assay_type": "cell-based, human", "settings": "positive in 184B5, 184B5/HER, HCA7, HCT116, SKBR3 and BT474 cells; 24 h treatment", "text": "We turn now to criterion (a), that is activation of PPRE luciferase by at least 100%. PPRE-luciferase refers to a DNA construct containing the peroxisome proliferator activated receptor (PPAR) binding element joined to luciferase. Cells are transfected with PPRE-luciferase DNA. Ligands of PPAR induce luciferase activity. The ability of a test compound to stimulate PPRE-luciferase signifies that the test compound activates PPAR-mediated gene transcription. PPRE means peroxisome proliferator response element and the method by which PPRE-luciferase is constructed is described in Schoonjans, K., et al, J. Biol. Chem. 270, No. 33, 19269-19276 (Aug. 18, 1995). Use of PPRE-luciferase in a transient transfection to measure increase in promoter activity is disclosed in Subbaramaiah, K. et al, J. Biol. Chem. 270, No. 15, 12440-12448 (Apr. 13, […]).\nFor each well, 1.8 μg of PPRE3-tk-luciferase construct plasmid DNA (described in Forman, B. M., et al, Cell 83, 803 (1995)) plus 0.2 μg of pSV-β-galactosidase were introduced into cells using 8 μg of LipofectAMINE as per the manufacturer's instructions (Invitrogen, CA). After 7 h of incubation, the medium was replaced with basal medium. After transfection, cells were treated with test compound for 24 h. Reporter activities which include luciferase and β-galactosidase were measured in cellular extract 24 h later. Six wells were used for each of the conditions. Luciferase activity represents data that have been normalized with β-galactosidase.\nThe luciferase assay was performed as per the BD Pharmingen assay reagents. The Enhanced Luciferase Assay Kit provides a firefly luciferase substrate formulation (Substrates A and B) and cell lysis buffer intended for use in measuring luciferase expressed by transfected cells. Media from cell culture plates was removed and rinsed twice with phosphate buffered saline. Enough 1X cell lysis buffer was added to cover cells and incubated at room temperature for 15-20 min. Cells were dislodged by scraping and transferred to microcentrifuge tubes. […] 20-100 μl cell extract was placed into an assay cuvette. One automatic injector type luminometer is used for assay. Manually 100 μl of Substrate A was added to the assay cuvette and automatically 100 μl of Substrate B was injected. Measurements were performed using a luminometer, for a measurement time of 10 seconds.\nThe β-galactosidase assay was performed as follows:\n50 μl of cell lysate from above was incubated with 50 μl of o-nitrophenyl-β-D-galactoside (ONPG; 4 mg/mL) in Z buffer, (Na2HPO4.7H2O (0.06M), NaH2PO4.H2O (0.04M), 1M KCl (0.01M), 1M MgSO4 (0.001M), β-mercaptoethanol (BME) (0.05M) pH 7.0). The reaction was stopped after sufficient yellow color has developed. The yellow color developed is measured at A420 […]."}, "[1]": {"tested_on": "HPV16 oncoproteins E6 and E7", "experiment": "Western and Northern blotting for HPV16 oncoproteins E6 and E7 (test (d))", "assay_type": "cell-based, human papillomavirus", "settings": "positive in CaSki and SiHa cells", "method": "We turn now to the criterion (d), that is at least 50% downregulation of expression of HPV16 oncoproteins E6 and E7.\nProtein E6 and E7 which are expressed by HPV16 are believed to play a major role in carcinogenesis.\nWestern blotting and Northern blotting techniques were used to evaluate the expression of HPV E6 and E7 proteins. The cell lines used for the study were CaSKi and SiHa. The cells were treated with the test compound and cell lysate was obtained as described above and subjected to Western blotting analysis. The Western blotting analysis was performed as described above except anti-HPV 16 E7 antibody was used to probe the blot. The antibody was obtained from Santa Cruz Biotechnology, Inc. CA. For Northern blotting, total cellular RNA was isolated from cell monolayers using an RNA isolation kit from QIAGEN Inc. after treatment with the test compound. 10 μg of total cellular RNA per lane were electrophoresed in a formaldehyde-containing 1.2% agarose gel and transferred to nylon-supported membranes. After baking, membranes were prehybridized overnight in a solution containing 50% formamide, 5×sodium chloride-sodium phosphate-EDTA buffer (SSPE), 5×Denhardt's solution, 0.1% SDS and 100 μg/ml single-stranded salmon sperm DNA and then hybridized for 12 h at 42° C. with radiolabeled cDNA probes for human HPV16 E6 or E7 cDNAs and 18S rRNA. E6 and E7 (as described in Woodworth, C. D., Cancer Res. 16, 4397-4402 (2000)) and 18S rRNA probes were labeled with [^32P]-CTP by random priming. After hybridization, membranes were washed twice for 20 min at room temperature in 2×SSPE-0.1% SDS, twice for 20 min in the same solution at 55° C., and twice for 20 min in 0.1×SSPE-0.1% SDS at 55° C. Washed membranes were then subjected to autoradiography."}, "[2]": {"experiment": "Patient with atherosclerosis (Example VI)", "assay_type": "in vivo, human", "settings": "person one, 200 mg bid", "text": "patient one presents with symptoms of chest discomfort on exertion and is diagnosed with atherosclerosis. […] The progression of the atherosclerosis stops."}, "[3]": {"experiment": "Patient with cervical intraepithelial neoplasia, HPV 16 detected (Example VIII)", "assay_type": "in vivo, human", "settings": "person, 0.5% in a cream on sponge/cervical cap, six months", "text": "A person presents to their gynecologist for evaluation. […] On biopsy, the patient is found to have cervical intraepithelial neoplasia. HPV 16 is detected. […] The SC-236 is discontinued with no recurrence of cervical intraepithelial neoplasia."}, "HER-2/neu": {"tested_on": "HER-2/neu", "experiment": "Western blotting for expression of HER-2/neu (test (b))", "assay_type": "cell-based, human", "settings": "positive in 184B5/HER, BT474 and SKBR3 cells; 24 h; Western blot", "text": "as §1\nHER-2/neu (erbB-2) gene product is a 185-kDA transmembrane receptor tyrosine kinase that is described in some detail in said Reese et al publication and overexpression thereof has been associated with tumor growth in several kinds of cancer.\nas §2, §3, §4"}}, "data": [{"smiles": "COc1ccc2c(c1)c(CC(=O)Nc1ccc(NC(C)=O)cc1)c(C)n2C(=O)c1ccc(Cl)cc1", "note": "[Indomethacin Analog 5]", "values": [{"measurement": "Test (g) at least 50% increase in expression of Nrf-2", "setting": "Nrf-2", "value": "+ (A plus sign in the table indicates a positive result, that is meeting the test for each cell line as indicated above as providing a positive result)"}, {"measurement": "Test (b) EGFR: at least 50% decrease in level of or 50% downregulation of expression", "setting": "EGFR", "value": "+ (A plus sign in the table indicates a positive result, that is meeting the test for each cell line as indicated above as providing a positive result)"}, {"measurement": "Test (c) at least 50% downregulation of expression of cyclin D1", "setting": "cyclin D1", "value": "+ (A plus sign in the table indicates a positive result, that is meeting the test for each cell line as indicated above as providing a positive result)"}, {"measurement": "Test (a) activation of PPRE luciferase by at least 100%", "setting": "PPRE luciferase", "value": "+ (A plus sign in the table indicates a positive result, that is meeting the test for each cell line as indicated above as providing a positive result)"}]}, {"smiles": "COc1ccc(-n2nc(C(F)(F)F)cc2-c2ccc(Cl)cc2)cc1", "note": "[SC-560, 5-(4-chlorophenyl)-1-(4-methoxyphenyl)-3-(trifluoromethyl)-1H-pyrazole]", "values": [{"measurement": "Test (d) at least 50% downregulation of expression of HPV16 oncoproteins E6 and E7", "setting": "[1]", "value": "+ (A plus sign in the table indicates a positive result, that is meeting the test for each cell line as indicated above as providing a positive result)"}, {"measurement": "progression of the atherosclerosis", "setting": "[2]", "value": "stops"}, {"measurement": "repeat biopsy finding of cervical intraepithelial neoplasia", "setting": "[3]", "value": "no evidence of cervical intraepithehal neoplasia"}, {"measurement": "Test (b) HER-2/neu: at least 50% decrease in level of or 50% downregulation of expression", "setting": "HER-2/neu", "value": "+ (A plus sign in the table indicates a positive result, that is meeting the test for each cell line as indicated above as providing a positive result)"}]}]}
